Laboratory results taken from patent publication US20230137491A1, “PEPTIDES AND USES THEREOF” (SINTICA BIOTECH SOCIETÀ A RESPONSABILITÀ LIMITATA …, priority 2020, published 2023).
Non-standard residues stand in square brackets, D forms with d. methoxy‑PEG 20 kDa = linear 20 kDa methoxy-PEG conjugated through D-Cys sulfur

Tests used:
[1] = tested on: primary and metastatic melanoma cell lines; experiment: Trypan blue viable cell counting in relation to CD271 levels by flow cytometry; assay type: cell-based, human; details: five primary and metastatic melanoma cell lines
Method: FIG. 4. The peptide-induced cell death correlates with CD271 expression levels in melanoma cell lines. Five primary and metastatic melanoma cell lines were cultured and viability measured by Trypan blue staining solution. Flow cytometry was used to evaluate the expression level of CD271 receptor. Because CD271 mediates apoptosis in many cell systems, we analysed the effect of XYZ in melanoma cell lines in relation to the levels of the receptor. After treatment, melanoma cell lines were harvested and incubated with Trypan Blue staining solution or incubated with CD271 antibody for flow cytometer analysis.

[2] = tested on: WM266-4 melanoma cell line; experiment: Cell death analysis by flow cytometry (propidium iodide, sub-G1); assay type: cell-based, human; details: WM266-4, 24 h and 48 h, versus diluent
Method: (§1) FIG. 5. […] WM266-4 melanoma cell line was cultured and the rate of apoptosis measured after treatment with the peptide (XYZ) as compared to diluent at different time points by flow cytometry (A) counting % of cells in sub-G1 with propidium iodide staining or (B) counting % of Annexin positive cells staining. Student's t-test was used for comparison of the means
WM266-4 cell line was treated with the peptide (XYZ) or diluent at different time points. After 24 and 48 h, cells were trypsinised and resuspended in hypotonic fluorochrome solution: 50 μg/ml propidium iodide containing 0.1% sodium citrate and 0.5% Triton X-100 (Sigma Aldrich, Milano, Italy). After 15 min, cells were analyzed using an Epics XL flow cytometer (Coulter Electronics Inc., Hialeah, Fla., USA). Apoptosis was detected by evaluating the reduced fluorescence of the DNA-binding dye PI in the apoptotic nuclei.
(§2) In particular, XYZ triggers melanoma apoptosis, a most well-known type of programmed cell death in culture. […] In details, melanoma cell lines, gently were trypsinised and washed once with serum-containing media before incubation with annexin V-FITC or with propidium iodide. 24 h and 48 h later, FITC signal detector or sub G0/G1 peak for annexin or PI staining respectively, were observed by flow cytometry.

[3] = tested on: WM266-4 melanoma cell line; experiment: Annexin V staining by flow cytometry; assay type: cell-based, human; details: WM266-4, 24 h and 48 h, versus diluent
Method: as §1
WM266-4 cell line was treated with the peptide (XYZ) or diluent at different time points. After 24 and 48 h, cells were trypsinised, collected by centrifugation and resuspended in 500 μL of binding buffer containing annexin V-FITC and propidium iodide (PI). After incubation at room temperature for 5 min in the dark, annexin V-FITC binding was analyzed by flow cytometry using FITC signal detector and PI staining by the phycoerythrin emission signal detector.
as §2

[4] = tested on: CD1 mice; experiment: Acute toxicity testing (up and down procedure); assay type: in vivo; details: six CD1 mice, intravenous, 17.5 mg/kg to 1750 mg/kg, up to six days
Method: FIG. 10. No toxic effects in 6 mice treated with XYZ. Acute toxicity testing was performed in CD1 mice with different doses of XYZ up to six days after treatment. After one day of fasting, six mice were injected intravenously (28 G needle) through the tail vein with a total dose of 17.5, 175, 550 or 1750 mg/kg/mouse of XYZ in a physiological solution. 50 gr of food were available two hours later. The health status (coat and appearance) of mice was observed from the first day after treatment. (a) Mice were weighed prior to XYZ injection and then every day until the sixth day. The amount of ingested food (b) and drinking water (c) were measured.
Intravenous injections were performed in six CD1 mice (Charles River, Calco (MI) Italy) tails for administration from 17.5 mg/kg to 1750 mg/kg XYZ (FIG. 10).

[5] = tested on: melanoma cells derived from patient with BRAF mutation in zebrafish; experiment: Zebrafish xenotransplant with melanoma cells from a patient with BRAF mutation; assay type: in vivo; details: embryos with metastasis counted 5 days post injection, versus control
Method: FIG. 11. The peptide reduces initial metastasis formation in zebrafish injected with melanoma cells. Metastatic melanoma cells from a patient with BRAF mutation were treated with the peptide, DTIC, the peptide in combination with DTIC, DTIC alone, BRAF inhibitor or left untreated. They were stained with Vibrant Cell Labelling Solution (red) and injected into the yolk of transparent zebrafish larvae and monitored. The number of embryos with metastasis was counted at 5 days post injection.
The use of melanoma biopsies was approved by the ethical committee (Comitato Etico dell'Area Vasta Emilia Nord). Biopsies were taken from the University Hospital Policlinico of Modena and patient gave inform consent. […]
(§3) Zebrafish handling was performed at the Zebrafish Centre of the University of Padova, Italy, under ethical committee (OPBA) authorization 407/2015-PR. […] Zebrafishes were monitored daily and documented from 1 day post injection (dpi) up to 1 week (experimental endpoint). […]
(§4) For xenotransplantation, albino embryos were mechanically dechorionated at 2 days post-fertilisation, anesthetized with tricaine 0.16 mg/ml and placed along plastic lanes immersed in 2% methylcellulose/PBS. […] Stained cells were loaded in a glass capillary needle and microinjected into the yolk (about 50 cells/embryo), Xenotransplanted embryos were monitored daily and documented from one day post injection up to one week.

[6] = tested on: SKmel 28 cell line in zebrafish; experiment: Zebrafish xenotransplant with SKmel28 cell line; assay type: in vivo; details: SKmel28, embryos with metastasis counted 5 days post injection
Method: FIG. 12. […] SKMel28 melanoma cell line was treated with XYZ, DTIC, the peptide in combination with DTIC, or left untreated. They were stained with Vibrant Cell Labelling Solution (red) and injected into the yolk of transparent zebrafish larvae and monitored. The number of embryos with metastasis was counted at 5 days post injection.
as §3, with “407/2015-PR. Zebrafish embryos were obtained from natural spawning of albino adults, raised following standard protocols (Westerfield, M et al., 2000) and staged according to Kimmel et al. (1995).” for “407/2015-PR.”
as §4

## Ac-DMet-DLeu-Gly-DIle-DIle-DAla-Gly-DLys-DAsn-DSer-Gly-DCys-NH2 with a linear 20 kDa methoxy-PEG polymer conjugated to the D-Cys residue through the sulfur atom of the latter (Ac-[dM][dL]G[dI][dI][dA]G[dK][dN][dS]G[dC](methoxy‑PEG 20 kDa)-NH2) [XYZ]
[1]
  cell death versus CD271 expression level (Trypan blue viable cell counting, flow cytometry): more efficacious in cell lines expressing higher levels of CD271
[2]
  rate of apoptosis (propidium iodide, subG1 analysis): significantly higher rate of apoptosis than diluent alone
[3]
  rate of apoptosis (Annexin staining): significantly higher rate of apoptosis than diluent alone
[4]
  acute toxic effect (appearance, weight, water and food intake): did not show any acute toxic effect
[5]
  metastasis formation in zebrafish: reduces metastasis formation
[6]
  full metastasis in xenotransplanted zebrafish: reduces full metastasis
